The target in the assay is T1, rat mGlu2 (Rattus norvegicus, UniProt P31421).
T1 construct: expressed in transfected cells; host or cells: HEK-293 cells stably co-expressing GIRK channels
T1 sequence (P31421 19-872): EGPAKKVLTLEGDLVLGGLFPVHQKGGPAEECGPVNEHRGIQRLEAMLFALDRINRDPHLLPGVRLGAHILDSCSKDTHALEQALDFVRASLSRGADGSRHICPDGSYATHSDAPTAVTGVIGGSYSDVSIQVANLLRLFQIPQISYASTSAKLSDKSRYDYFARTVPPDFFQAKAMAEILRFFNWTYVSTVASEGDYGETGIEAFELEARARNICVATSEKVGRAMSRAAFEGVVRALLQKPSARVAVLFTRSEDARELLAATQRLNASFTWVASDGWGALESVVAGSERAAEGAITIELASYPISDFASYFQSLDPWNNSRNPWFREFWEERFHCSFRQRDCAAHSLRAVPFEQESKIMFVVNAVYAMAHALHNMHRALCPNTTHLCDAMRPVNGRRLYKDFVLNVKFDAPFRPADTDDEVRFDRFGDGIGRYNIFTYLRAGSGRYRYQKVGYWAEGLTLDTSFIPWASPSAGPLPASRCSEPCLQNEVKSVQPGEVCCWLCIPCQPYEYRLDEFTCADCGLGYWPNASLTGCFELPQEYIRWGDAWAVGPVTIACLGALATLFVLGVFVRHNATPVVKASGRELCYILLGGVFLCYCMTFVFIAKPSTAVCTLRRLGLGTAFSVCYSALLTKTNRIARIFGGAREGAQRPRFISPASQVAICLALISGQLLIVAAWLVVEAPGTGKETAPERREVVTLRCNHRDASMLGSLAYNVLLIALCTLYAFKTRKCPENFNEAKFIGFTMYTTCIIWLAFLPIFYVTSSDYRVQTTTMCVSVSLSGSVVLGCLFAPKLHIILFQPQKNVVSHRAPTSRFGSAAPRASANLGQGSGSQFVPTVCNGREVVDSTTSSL
The experiment in a line: mGlu GIRK cell-based thallium flux assay, rat mGlu2. The following applies: HEK-293 cells co-expressing rat mGlu2 and GIRK, EC80 glutamate. On the procedure: Human embryonic kidney (HEK-293) cell lines stably co-expressing human or rat mGlu2 and G protein-coupled inwardly rectifying potassium (GIRK) channels, or human mGlu3 and GIRK, were used for in vitro evaluation of compound activity in thallium flux assay using a fluorescent thallium indicator dye.
The day before the assay, GIRK cells co-expressing human mGlu3, human or rat mGlu2, as described above, were plated in black-walled, clear-bottomed, amine-coated 384-well plates at a density of 15,000 cells/20 μL/well in the assay medium (glutamine-depleted basal DMEM supplemented with 10% dialyzed FBS, 20 mM HEPES, 1 mM sodium pyruvate). Cells were incubated at 37° C. in the presence of 5% CO2. The next day, assay buffer (Hanks balanced salt solution, 20 mM HEPES, 4.16 mM sodium bicarbonate, pH 7.2) was prepared to dilute compounds and Thallos AM fluorescent dye solution. The 2× Thallos dye solution (final concentration 0.34 μM to the cells) was prepared by mixing the dye stock (2.97 mM in DMSO) to 1:1 with 10% pluronic acid before adding to the assay buffer. Cells were washed with assay buffer using a microplate washer to remove the medium, resulting in 20 μL of buffer remaining in each well. Immediately, 20 μL of 2× Thallos dye solution was added to cells, and incubated for one hour at 25° C. During the cell dye loading incubation period, a 10-point concentration serial dilution of compound was created from a 10 mM DMSO compound stock by performing a 1:3 serial dilution in DMSO using the Bravo liquid handler. The 2× compound plate was generated by transferring 0.24 μL of the diluted compound in each well to a daughter plate using an Echo acoustic liquid handler. This is further diluted in 40 μL assay buffer, resulting in a range from 30 μM to 1.5 nM final concentration in the assay. The agonist plate (5×) was prepared to include EC80 glutamate concentration (a concentration to elicit 80% of a maximally effective glutamate concentration) in thallium buffer (125 mM […], 1 mM magnesium sulfate, 1.8 mM calcium sulfate, 5 mM glucose, 10 mM HEPES, pH 7.2, 12.5 mM thallium sulfate).
After dye-loading, cell plates were washed with assay buffer to remove excess extracellular dye using a microplate washer, resulting in 20 μL of buffer remaining in each well. After a ten-minute equilibration period, cell, compound and agonist plates were loaded into a Hamamatsu μCell kinetic imaging plate reader equipped with liquid handler to monitor fluorescence changes at 480 nm excitation and 540 nm emission settings. Briefly, after collection of baseline fluorescence, 20 μL of compound was added and incubated for two minutes and twenty seconds. This is immediately followed by adding 10 μL of glutamate-thallium buffer to the wells containing compound. The fluorescent signal was monitored an additional 2.5 minutes after the glutamate addition. Multiple reference wells containing no compound received either no glutamate (for a baseline reference), EC80 glutamate, or ECmax glutamate (for normalization to maximum response). Fluorescence was measured throughout the experiment at a frequency of 1 measurement per every 2 seconds before the glutamate addition and a frequency of 1 measurement per every 1 second after the glutamate addition. Each compound concentration series occurred one time in each plate, and replicates from two or three plates were used in each experimental run. Thallium solutions were handled and disposed of according to guidelines from the Vanderbilt University Chemical Safety department.
Data were normalized using a static ratio function (F/F0) by dividing every fluorescent measurement by the initial fluorescent value for the corresponding well. The increase in signal resulting from the glutamate/thallium addition of the second add was measured by determining the slope from 3 seconds to 13 seconds after the addition. […]
As for `CC1CC(c2cc3c(cc2-c2ccc(F)cc2)C(=O)NC3)=CCN1` (centres unmarked) [Compound 84, 6-(4-fluorophenyl)-5-(2-methyl-1,2,3,6-tetrahydropyridin-4-yl)isoindolin-1-one], the concentration for half-maximal inhibition (IC50) (usually the concentration that gives 50% inhibition) is greater than 10 µM.
Consider `N#Cc1cccc(-c2cc3c(cc2-c2ccc(F)cc2F)C(=O)NC3)c1` [Compound 107, 3-(6-(2,4-difluorophenyl)-1-oxoisoindolin-5-yl)benzonitrile], for which the midpoint of inhibition, the IC50, lay at 0.589 µM.
`CN1CCC=C(c2cc3c(cc2-c2ccc(F)cc2)C(=O)NC3)C1` [Compound 57, 6-(4-fluorophenyl)-5-(1-methyl-1,2,5,6-tetrahydropyridin-3-yl)isoindolin-1-one] returned an IC50 greater than 10 µM.
As for `O=C1NCc2cc(-c3c[nH]nc3C(F)(F)F)c(-c3ccc(F)cc3F)cc21` [Compound 114, 6-(2,4-difluorophenyl)-5-(3-(trifluoromethyl)-1H-pyrazol-4-yl)isoindolin-1-one], the figure is greater than 10 µM.
With `O=C1NCc2cc(-c3ccc4ncccc4c3)c(-c3ccc(F)cc3)cc21` [Compound 19, 6-(4-fluorophenyl)-5-(quinolin-6-yl)isoindolin-1-one], it took 4.31 µM to reach half-maximal inhibition (IC50).
In turn, `O=C1NCc2cc(C3=CCNC3)c(-c3ccc(F)cc3)cc21` [Compound 82, 5-(2,5-dihydro-1H-pyrrol-3-yl)-6-(4-fluorophenyl)isoindolin-1-one] registered an IC50 greater than 10 µM.
The result for `COc1cc(F)ccc1-c1cc2c(cc1-c1ccc(F)cc1F)C(=O)NC2` [Compound 105, 6-(2,4-difluorophenyl)-5-(4-fluoro-2-methoxyphenyl)isoindolin-1-one] reads 4.49 µM.
Take `N#Cc1ccc(-c2cc3c(cc2-c2ccc(F)cc2F)C(=O)NC3)c(F)c1` [Compound 103, 4-(6-(2,4-difluorophenyl)-1-oxoisoindolin-5-yl)-3-fluorobenzonitrile]: the IC50 amounted to 2.88 µM.
As to `CN(C)c1ncccc1-c1cc2c(cc1-c1ccc(F)cc1F)C(=O)NC2` [Compound 71, 6-(2,4-difluorophenyl)-5-(2-(dimethylamino)pyridin-3-yl)isoindolin-1-one], the 50% inhibitory concentration (IC50) came out at 5.1 µM.
`Cc1nc(F)ccc1-c1cc2c(cc1-c1ccc(F)cc1)C(=O)NC2` [Compound 30, 5-(6-fluoro-2-methylpyridin-3-yl)-6-(4-fluorophenyl)isoindolin-1-one] gave an IC50 greater than 10 µM.
As for `Cc1c(C#N)cccc1-c1cc2c(cc1-c1ccc(F)cc1F)C(=O)NC2` [Compound 109, 3-(6-(2,4-difluorophenyl)-1-oxoisoindolin-5-yl)-2-methylbenzonitrile], the figure is 1.13 µM; as for `Cn1ccc(-c2cc3c(cc2-c2ccc(F)cc2F)C(=O)NC3)n1` [Compound 80, 6-(2,4-difluorophenyl)-5-(1-methyl-1H-pyrazol-3-yl)isoindolin-1-one], 1.09 µM; as for `O=C1NCc2cc(C3CCCCC3)c(-c3ccc(F)cc3)cc21` [Compound 63, 5-cyclohexyl-6-(4-fluorophenyl)isoindolin-1-one], 2.62 µM.
The result for `O=C1NCc2cc(-c3cccnc3C(F)(F)F)c(-c3ccc(F)cc3F)cc21` [Compound 110, 6-(2,4-difluorophenyl)-5-(2-(trifluoromethyl)pyridin-3-yl)isoindolin-1-one] reads greater than 10 µM; that for `N#Cc1ccc(-c2cc3c(cc2-c2ccc(F)cc2)C(=O)NC3)cn1` [Compound 33, 5-(6-(4-fluorophenyl)-1-oxoisoindolin-5-yl)picolinonitrile], greater than 10 µM.
As for `CC(C)(O)c1ccc(-c2cc3c(cc2-c2ccc(F)cc2)C(=O)NC3)cn1` [Compound 50, 6-(4-fluorophenyl)-5-(6-(2-hydroxypropan-2-yl)pyridin-3-yl)isoindolin-1-one], the figure is greater than 10 µM.
`O=C1NCc2cc(-c3ccc4scnc4c3)c(-c3ccc(F)cc3F)cc21` [Compound 23, 5-(benzo[d]thiazol-5-yl)-6-(2,4-difluorophenyl)isoindolin-1-one] registered an IC50 of 2.15 µM.

For the origin of these results see US20260098030A1, “NEGATIVE ALLOSTERIC MODULATORS OF METABOTROPIC GLUTAMATE RECEPTOR 2” (Vanderbilt University, priority 2022, published 2026).
